Nine compounds from patent US12152024B2, “Pesticidally active heterocyclic derivatives with sulphur and hydroxylamine substituents” (SYNGENTA PARTICIPATIONS AG, priority 2016, dated 2024) can be followed below.

The structures appear in SMILES notation.

Data set [1] deals with Spodoptera littoralis (Egyptian Cotton Leaf Worm). Description: Activity against Spodoptera littoralis (Egyptian cotton leaf worm), uptake via lettuce roots from agar. Format: in vivo. The following applies: 144 h, test rate 12.5 ppm, 6 days after infestation, read-out: effect in at least one of the three categories (mortality, anti-feeding, or growth inhibition). An excerpt: Test compounds were applied by pipette from 10′000 ppm DMSO stock solutions into 24-well plates and mixed with agar. Lettuce seeds were placed onto the agar and the multi well plate was closed by another plate which contained also agar. After 7 days the compound was absorbed by the roots and the lettuce grew into the lid plate. The lettuce leaves were then cut off into the lid plate. Spodoptera eggs were pipetted through a plastic stencil onto a humid gel blotting paper and the lid plate was closed with it. The samples were assessed for mortality, anti-feedant effect and growth inhibition in comparison to untreated samples 6 days after infestation.

Data set [2] has as its system Diabrotica balteata (corn root worm). The experiment in a line: Activity against Diabrotica balteata (corn root worm), maize sprouts sprayed. Format: in vivo. The following applies: for percent effect (mortality or growth inhibition) at 200 ppm: 96 h, application rate 200 ppm, L2 larvae, 4 days after infestation, read-out: effect in at least one of the two categories (mortality or growth inhibition). As for the experimental part:
Maize sprouts placed onto an agar layer in 24-well microtiter plates were treated with aqueous test solutions prepared from 10′000 ppm DMSO stock solutions by spraying. After drying, the plates were infested with L2 larvae (6 to 10 per well). The samples were assessed for mortality and growth inhibition in comparison to untreated samples 4 days after infestation.

Data set [3] deals with Euschistus heros (Neotropical Brown Stink Bug). Description: Activity against Euschistus heros (neotropical brown stink bug), soybean leaves sprayed. Format: in vivo. Conditions: 120 h, application rate 200 ppm, N2 nymphs, 5 days after infestation, read-out: effect in at least one of the two categories (mortality or growth inhibition). How it is done:
Soybean leaves on agar in 24-well microtiter plates were sprayed with aqueous test solutions prepared from 10′000 ppm DMSO stock solutions. After drying the leaves were infested with N2 nymphs. The samples were assessed for mortality and growth inhibition in comparison to untreated samples 5 days after infestation.

Data set [4] concerns Plutella xylostella (Diamond Back Moth). Description: Activity against Plutella xylostella (diamond back moth), artificial diet. The data set is classed as in vivo. The following applies: for percent effect (mortality or growth inhibition) at 200 ppm: 120 h, application rate 200 ppm, L2 larvae, 5 days after infestation, read-out: effect in at least one of the two categories (mortality or growth inhibition). How it is done: 24-well microtiter plates with artificial diet were treated with aqueous test solutions prepared from 10′000 ppm DMSO stock solutions by pipetting. After drying, the plates were infested with L2 larvae (10 to 15 per well). The samples were assessed for mortality and growth inhibition in comparison to untreated samples 5 days after infestation.

The subject of data set [5] is Myzus persicae (Green Peach Aphid). Description: Activity against Myzus persicae (green peach aphid): systemic activity. Format: in vivo. Conditions: for mortality at 24 ppm: Myzus persicae, 144 h, test rate 24 ppm, systemic, pea seedling roots in test solution, 6 days. How it is done: Roots of pea seedlings infested with an aphid population of mixed ages were placed directly into aqueous test solutions prepared from 10′000 DMSO stock solutions. The samples were assessed for mortality 6 days after placing seedlings into test solutions.

In data set [6] the test system is Spodoptera littoralis (Egyptian Cotton Leaf Worm). Description: Activity against Spodoptera littoralis (Egyptian cotton leaf worm), cotton leaf discs sprayed. The following applies: for percent control (mortality, anti-feedant effect or growth inhibition) at 200 ppm: foliar, 72 h, application rate 200 ppm, L1 larvae, 3 days after infestation, read-out: control (mortality, anti-feeding effect or growth inhibition). The data set is classed as in vivo. How it is done: Cotton leaf discs were placed onto agar in 24-well microtiter plates and sprayed with aqueous test solutions prepared from 10′000 ppm DMSO stock solutions. After drying the leaf discs were infested with five L1 larvae. The samples were assessed for mortality, anti-feeding effect, and growth inhibition in comparison to untreated samples 3 days after infestation. Control of Spodoptera littoralis by a test sample is given when at least one of the categories mortality, anti-feedant effect, and growth inhibition is higher than the untreated sample.

Data set [7] has as its system Myzus persicae (Green Peach Aphid). Description: Activity against Myzus persicae (green peach aphid): feeding/contact activity. Format: in vivo. Conditions: for mortality at 200 ppm: Myzus persicae, 144 h, application rate 200 ppm, feeding/contact, mixed ages, 6 days after infestation. How it is done:
Sunflower leaf discs were placed onto agar in a 24-well microtiter plate and sprayed with aqueous test solutions prepared from 10′000 ppm DMSO stock solutions. After drying, the leaf discs were infested with an aphid population of mixed ages. The samples were assessed for mortality 6 days after infestation.

The subject of data set [8] is Tetranychus urticae (Two-Spotted Spider Mite). Description: Activity against Tetranychus urticae (two-spotted spider mite). Format: in vivo. The following applies: 192 h, application rate 200 ppm, mixed population (mobile stages), 8 days after infestation. As for the experimental part: Bean leaf discs on agar in 24-well microtiter plates were sprayed with aqueous test solutions prepared from 10′000 ppm DMSO stock solutions. After drying the leaf discs were infested with a mite population of mixed ages. The samples were assessed for mortality on mixed population (mobile stages) 8 days after infestation.

In data set [9] the test system is Bemisia tabaci (Cotton White Fly). Description: Activity against Bemisia tabaci (cotton white fly). The data set is classed as in vivo. The following applies: 144 h, application rate 200 ppm, adult white flies, 6 days after incubation. How it is done:
Cotton leaf discs were placed on agar in 24-well microtiter plates and sprayed with aqueous test solutions prepared from 10′000 ppm DMSO stock solutions. After drying the leaf discs were infested with adult white flies. The samples were checked for mortality 6 days after incubation.

For data set [10], the system named is Franklinella occidentalis (Western Flower Thrips). Description: Activity against Franklinella occidentalis (western flower thrips). The data set is classed as in vivo. Conditions: Frankliniella occidentalis, 168 h; application rate 200 ppm; mixed ages; 7 days after infestation. As for the experimental part:
Sunflower leaf discs were placed on agar in 24-well microtiter plates and sprayed with aqueous test solutions prepared from […] stock solutions. After drying the leaf discs were infested with a Frankliniella population of mixed ages. The samples were assessed for mortality 7 days after infestation.

The mark [11] stands for this setting: concentration 12.5 ppm, listed as drawing 143.

Regarding `CCS(=O)(=O)c1cccnc1-c1nc2cc(C(F)(F)F)n(OC)c(=O)c2n1C` [Compound A2, 2-(3-ethylsulfonyl-2-pyridyl)-5-methoxy-3-methyl-6-(trifluoromethyl) imidazo[4,5-c]pyridin-4-one], in data set [1], the percent effect (mortality, anti-feeding or growth inhibition) at 12.5 ppm is not below 80%. Also, the percent effect (mortality or growth inhibition) at 200 ppm in data set [2], in [3] and in data set [4] was not below 80% throughout. The “Mortality (%)” value in data set [2] (concentration 50 ppm, listed as drawing 143) came out at 100%; in data set [4] (setting [11]) it was 80%; in data set [5] (Myzus persicae (systemic), concentration 1.5 ppm, listed as drawing 143), 80%; in data set [6] (setting [11]) it was 80%; in data set [7] (Myzus persicae (feeding/contact), concentration 50 ppm, listed as drawing 143), 100%. This compound displayed a mortality at 24 ppm in data set [5] not below 80%. Moreover, the percent control (mortality, anti-feedant effect or growth inhibition) at 200 ppm in data set [6] was not below 80%. The compound further gave a mortality at 200 ppm in data set [7] not below 80%.

Consider `CCS(=O)(=O)c1ccc(-n2cncn2)nc1-c1nc2cc(C(F)(F)F)n(OC)c(=O)c2n1C` [Compound A3, 2-[3-ethylsulfonyl-6-(1,2,4-triazol-1-yl)-2-pyridyl]-5-methoxy-3-methyl-6-(trifluoromethyl)imidazo[4,5-c]pyridin-4-one], for which the mortality at 200 ppm in [8], in data set [9] and in data set [7] was not below 80% each time. Besides, the percent effect (mortality or growth inhibition) at 200 ppm in [2], in data set [3] and in [4] was not below 80% in each case. Also, the mortality at 24 ppm in data set [5] was not below 80%. In [6], the percent control (mortality, anti-feedant effect or growth inhibition) at 200 ppm is not below 80%.

In the case of `CCS(=O)(=O)c1cc(C2(C#N)CC2)cnc1-c1nc2cc(C(F)(F)F)n(OC)c(=O)c2n1C` [Compound A8, 1-[5-ethylsulfonyl-6-[5-methoxy-3-methyl-4-oxo-6-(trifluoromethyl)imidazo[4,5-c]pyridin-2-yl]-3-pyridyl]cyclopropanecarbonitrile], the mortality at 200 ppm in data set [8], in data set [9] and in [7] was not below 80% each time. The percent effect (mortality or growth inhibition) at 200 ppm in data set [2], in data set [3] and in [4] was not below 80% each time. Moreover, the mortality at 24 ppm in data set [5] is not below 80%. In addition, in [6], the percent control (mortality, anti-feedant effect or growth inhibition) at 200 ppm was not below 80%.

As for `CCS(=O)(=O)c1cc(C2(C#N)CC2)ccc1-c1nc2cc(C(F)(F)F)n(OC)c(=O)c2n1C` [Compound A9, 1-[3-ethylsulfonyl-4-[5-methoxy-3-methyl-4-oxo-6-(trifluoromethyl)imidazo[4,5-c]pyridin-2-yl)phenyl]cyclopropanecarbonitrile], the mortality at 200 ppm in data set [8], in [9] and in data set [7] was not below 80% each time. Moreover, the percent effect (mortality or growth inhibition) at 200 ppm in data set [2], in data set [3] and in data set [4] was not below 80% throughout. In data set [5], this compound came in with a mortality at 24 ppm not below 80%. Also, the percent control (mortality, anti-feedant effect or growth inhibition) at 200 ppm in [6] is not below 80%.

With `CCS(=O)(=O)c1ccc(Cl)nc1-c1nc2cc(C(F)(F)F)n(OC)c(=O)c2n1C` [Compound A11, 2-(6-chloro-3-ethylsulfonyl-2-pyridyl)-5-methoxy-3-methyl-6-(trifluoromethyl)imidazo[4,5-c]pyridin-4-one], the melting point was in the range of 195 to 197 °C.

In the case of `CCS(=O)(=O)c1cc(C(C)(C)C#N)cnc1-c1nc2cc(C(F)(F)F)n(OC)c(=O)c2n1C` [Compound A12, 2-[5-ethylsulfonyl-6-[5-methoxy-3-methyl-4-oxo-6-(trifluoromethyl)imidazo[4,5-c]pyridin-2-yl]-3-pyridyl]-2-methyl-propanenitrile], the mortality at 200 ppm in data set [10], in [9] and in data set [7] was not below 80% in each case. Also, the percent effect (mortality or growth inhibition) at 200 ppm in data set [2], in [3] and in [4] was not below 80% each time. Further, the mortality at 24 ppm in data set [5] is not below 80%. For the same compound, the percent control (mortality, anti-feedant effect or growth inhibition) at 200 ppm in data set [6] is not below 80%.

Consider `CCS(=O)(=O)c1ccc(N)nc1-c1nc2cc(C(F)(F)F)n(OC)c(=O)c2n1C` [Compound A13, 2-(6-amino-3-ethylsulfonyl-2-pyridyl)-5-methoxy-3-methyl-6-(trifluoromethyl)imidazo[4,5-c]pyridin-4-one], for which the percent effect (mortality or growth inhibition) at 200 ppm in data set [2], in data set [3] and in data set [4] was not below 80% throughout. Further, the mortality at 200 ppm in [9] and in data set [7] was not below 80% each time. For the same compound, the mortality at 24 ppm in data set [5] was not below 80%. For the same compound, the percent control (mortality, anti-feedant effect or growth inhibition) at 200 ppm in data set [6] is not below 80%.

Take `CCS(=O)(=O)c1cc(Cl)c(N)nc1-c1nc2cc(C(F)(F)F)n(OC)c(=O)c2n1C` [Compound A14, 2-(6-amino-5-chloro-3-ethylsulfonyl-2-pyridyl)-5-methoxy-3-methyl-6-(trifluoromethyl)imidazo[4,5-c]pyridin-4-one]: the percent effect (mortality or growth inhibition) at 200 ppm in data set [2], in [3] and in data set [4] was not below 80% in each case. Moreover, the mortality at 200 ppm in data set [9] and in data set [7] was not below 80% each time. For the same compound, the mortality at 24 ppm in data set [5] is not below 80%. Also, the percent control (mortality, anti-feedant effect or growth inhibition) at 200 ppm in [6] is not below 80%.

On to `CCS(=O)(=O)c1cc(Br)cnc1-c1nc2cc(C(F)(F)F)n(OC)c(=O)c2n1C` [Compound A17, 2-(5-bromo-3-ethylsulfonyl-2-pyridyl)-5-methoxy-3-methyl-6-(trifluoromethyl)imidazo[4,5-c]pyridin-4-one], for which the percent effect (mortality or growth inhibition) at 200 ppm in [2], in data set [3] and in data set [4] was not below 80% each time. The mortality at 200 ppm in [9] and in [7] was not below 80% in each case. This compound had a mortality at 24 ppm in [5] not below 80%. Besides, in data set [6], the percent control (mortality, anti-feedant effect or growth inhibition) at 200 ppm was not below 80%.
